Data: ChEMBL document CHEMBL1201862, “PubChem BioAssay data set” (2004)
Calls of active or inactive are those of the source.

How the values were obtained:
[1] = biological target: Induced myeloid leukemia cell differentiation protein Mcl-1 (Homo sapiens, UniProt Q07820); assay type: functional
[2] = inhibitors of SNCA 5'UTR-driven reporter translation, confirmation, H4 neuroglioma cells, luminescence (AID 1988); assay type: functional, cell-based
Nonstructural protein 1 = Nonstructural protein 1 (Influenza A virus, UniProt Q194T2); assay type: functional, Influenza A virus (A/California/07/2009(H1N1))
[3] = cytotoxicity toward NIH3T3 fibroblasts, dose response, counter-screen, cell-based, ATP luminescence, mouse fibroblasts (AID 2010); assay type: functional;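 further: cells exposed to compound for about 90 hours before reading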
[4] = inhibitors of intracellular T. cruzi replication, confirmation, NIH3T3 host cells, beta-gal luminescence (AID 2044); assay type: functional, cell-based;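 further: intracellular parasites grown in NIH/3T3 mouse fibroblasts as host cells; luminescent beta-galactosidase reporter signal from transgenic T. cruzi replicating inside host cells; inhibitors lower the luminescence signal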
[5] = inhibitors of firefly luciferase expression or activity, dose response, H4 neuroglioma cells, luminescence (AID 1990); assay type: functional, cell-based
[6] = Luminescence Cell-Based Dose Response HTS to Identify Inhibitors of 5'UTR Stem-Loop Driven Prion Protein mRNA Translation in H4 Neuroglioblastoma Cells. [Related pubchem assays: 1827 (Project Summary), 1813 (Primary HTS)]; assay type: functional
cells [7] = assay: cells
[8] = A cytotoxicity screen of small molecule inhibitors of the PhoP region in Salmonella typhi identified in the primary screen. [Related pubchem assays: 1850, 1864, 1985 ]; assay type: functional
[9] = HEp-2 cell cytotoxicity, dose response, cytotoxicity control for RSV inhibitor project, HTS (AID 2410); assay type: functional; conditions: human respiratory syncytial virus
Cytochrome P450 3A4 [10] = biological target: T1, Cytochrome P450 3A4 (Homo sapiens, UniProt P08684)
Troponin, cardiac muscle = Troponin, cardiac muscle (Homo sapiens, UniProt P19429+P45379+P63316); assay: Fluorescence-based biochemical high throughput dose response assay for activators of the calcium sensitivity of cardiac Regulated Thin Filaments (RTF). [Related pubchem assays (depositor defined):AID493008, AID493018, AID504382, AID504383]; assay type: protein-complex assay
BJ [11] = assay: cells; assay type: functional, cell-based; conditions: Homo sapiens
Cytochrome P450 2C9 [12] = biological target: T2, Cytochrome P450 2C9 (Homo sapiens, UniProt P11712)
BJ [13] = assay: cytotoxicity toward BJ-TERT fibroblasts, dose response, cell-based, RAS-independent, luminescence (AID 1933); assay type: functional; conditions: Homo sapiens
[14] = cytotoxicity toward DRD oncogenic fibroblasts, dose response, cell-based, non-viral oncogenic, luminescence (AID 1934); assay type: functional; conditions: Homo sapiens
BJ [15] = assay: cytotoxicity toward BJ-TERT-LT-ST fibroblasts, dose response, cell-based, RAS-independent, luminescence (AID 1935); assay type: functional; conditions: Homo sapiens;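 further: BJ fibroblasts immortalized with TERT plus LT and ST oncogenes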
INS1 = assay: beta cell apoptosis inhibitors, cytokine rescue, dose response, luminescence, retest (AID 449756); assay type: functional, cell-based; conditions: Rattus norvegicus;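 further: cell death triggered by IL-1 beta plus TNF-alpha plus IFN-gamma mixture; protective hits raise ATP signal compared with cytokine alone wells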
Paired box protein Pax-8 = Paired box protein Pax-8 (Homo sapiens, UniProt Q06710); assay: inhibitors of PAX8-driven TPO luciferase reporter, dose response, RMG-I cells, cherry-pick (AID 687027); assay type: functional, cell-based;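 further: luciferase reporter driven by Pax8 target thyroperoxidase promoter measured by SteadyGlo luminescence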
BJ [16] = assay: cytotoxicity toward Ras-transformed BJeLR fibroblasts, dose response, cell-based, alamar blue fluorescence, cherrypicked samples (AID 2631); assay type: functional; conditions: Homo sapiens;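 further: confirmatory dose-response assay in RAS-dependent BJ fibroblasts engineered with TERT, LT and ST, with cytotoxicity read by fluorescence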
[17] = THP-1 cell cytotoxicity, dose response, cytotoxicity control for non-replicating M. tuberculosis project (AID 489025); assay type: functional
[18] = Vero E6 cell cytotoxicity, dose response, cytotoxicity control for non-replicating M. tuberculosis project, secondary assay (AID 492998); assay type: functional, VeroE6; conditions: Vero C1008
[19] = growth suppression of beta-catenin-knockout colon cells, dose response, cell-based, HCT116, human colon tumor (AID 1045); assay type: functional;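 further: HCT116 colon tumor cells with beta catenin knocked out; cells exposed to compound for 60 hours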
[20] = Luminescence Cell-Based Dose Retest to Confirm Inhibitors of Cancer Stem Cells. [Related pubchem assays (depositor defined):AID2717, AID2721]; assay type: functional; conditions: Homo sapiens
[21] = HepG2 cell cytotoxicity, dose response, cytotoxicity control for non-replicating M. tuberculosis project (AID 489018); assay type: functional; conditions: Mycobacterium tuberculosis
[22] = growth suppression of PTEN-null colon cells, dose response, cell-based, HCT116 PTEN knockout (AID 1047); assay type: functional;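 further: HCT116 colon tumor cells with PTEN knocked out; cells exposed to compound for 60 hours before readout; potency for loss of cell viability measured by luminescence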
[23] = biological target: T3, DNA repair protein RAD52 homolog (Homo sapiens, UniProt P43351); assay type: functional, biochemical
T3 sequence (P43351 whole entry): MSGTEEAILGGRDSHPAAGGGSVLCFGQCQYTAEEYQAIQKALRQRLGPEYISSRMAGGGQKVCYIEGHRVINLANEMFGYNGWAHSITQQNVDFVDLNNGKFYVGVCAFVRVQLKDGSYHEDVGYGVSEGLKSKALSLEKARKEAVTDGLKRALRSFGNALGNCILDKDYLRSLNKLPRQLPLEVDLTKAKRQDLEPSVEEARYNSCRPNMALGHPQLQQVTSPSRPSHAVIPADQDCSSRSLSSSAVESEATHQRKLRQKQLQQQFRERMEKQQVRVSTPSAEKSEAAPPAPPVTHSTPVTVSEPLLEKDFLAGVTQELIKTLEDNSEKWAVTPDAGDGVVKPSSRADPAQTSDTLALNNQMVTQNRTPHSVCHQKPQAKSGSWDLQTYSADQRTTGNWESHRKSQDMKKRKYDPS

cells [24] = assay type: functional
Cytochrome P450 3A4 [25] = biological target: T1, Cytochrome P450 3A4; conditions: Potency
Cytochrome P450 2C9 [26] = biological target: T2, Cytochrome P450 2C9; remark: listed apart in the source
Cytochrome P450 2C19 = Cytochrome P450 2C19 (Homo sapiens, UniProt P33261); assay: Cytochrome panel assay with activity outcomes. Panel member name: p450-cyp2c19 Compounds with AC50 equal or less than 10 uM are considered active; assay type: functional; conditions: read-out: AC50
[27] = biological target: T4, Zinc finger protein mex-5 (Caenorhabditis elegans, UniProt Q9XUB2); assay: MEX-5/TCR-2 RNA interaction inhibitors, dose response, biochemical, C. elegans, fluorescence polarization (AID 1960)
T4 sequence (Q9XUB2 whole entry): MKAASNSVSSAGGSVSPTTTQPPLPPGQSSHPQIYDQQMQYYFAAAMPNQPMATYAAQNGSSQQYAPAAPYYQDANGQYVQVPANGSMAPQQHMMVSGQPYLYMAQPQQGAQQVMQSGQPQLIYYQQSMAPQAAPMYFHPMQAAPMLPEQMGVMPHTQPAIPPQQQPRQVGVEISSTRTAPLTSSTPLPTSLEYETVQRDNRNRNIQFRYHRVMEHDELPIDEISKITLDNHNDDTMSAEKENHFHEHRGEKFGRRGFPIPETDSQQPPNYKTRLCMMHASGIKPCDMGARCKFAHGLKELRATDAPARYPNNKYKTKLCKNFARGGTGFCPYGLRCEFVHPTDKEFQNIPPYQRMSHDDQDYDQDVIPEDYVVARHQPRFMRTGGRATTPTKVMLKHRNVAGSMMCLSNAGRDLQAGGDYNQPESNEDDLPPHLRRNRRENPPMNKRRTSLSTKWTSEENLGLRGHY

[28] = biological target: T5, RNA-binding protein pos-1 (Caenorhabditis elegans, UniProt G5EF15); assay: inhibitors of POS-1/mex-3 RNA binding, dose response, biochemical, fluorescence polarization (AID 1964);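 further: purified POS-1 fused to maltose binding protein made in E. coli; potency of compounds blocking POS-1 binding to fluorescent RNA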
T5 sequence (G5EF15 whole entry): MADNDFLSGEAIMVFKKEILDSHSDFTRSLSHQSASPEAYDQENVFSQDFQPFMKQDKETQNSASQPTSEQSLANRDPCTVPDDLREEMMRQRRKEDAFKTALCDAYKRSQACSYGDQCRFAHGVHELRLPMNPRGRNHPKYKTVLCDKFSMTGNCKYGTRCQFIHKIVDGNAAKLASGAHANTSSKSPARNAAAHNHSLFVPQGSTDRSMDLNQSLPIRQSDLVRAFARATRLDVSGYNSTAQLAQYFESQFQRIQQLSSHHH

[29] = biological target: Ras and Rab interactor 1/Tyrosine-protein kinase ABL1 (Homo sapiens, UniProt P00519+Q13671); assay type: functional;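 further: biochemical TR-FRET dose-response test measuring inhibition of binding between Rin1 and Abl proteins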
[30] = biological target: T6, Carboxy-terminal domain RNA polymerase II polypeptide A small phosphatase 1 (Homo sapiens, UniProt Q9GZU7); assay: inhibitors of CTDSP1, concentration-response testing, biochemical assay, absorbance-based, actives from ultra-high-throughput screening (AID 540297); assay type: functional
T6 sequence (Q9GZU7 whole entry): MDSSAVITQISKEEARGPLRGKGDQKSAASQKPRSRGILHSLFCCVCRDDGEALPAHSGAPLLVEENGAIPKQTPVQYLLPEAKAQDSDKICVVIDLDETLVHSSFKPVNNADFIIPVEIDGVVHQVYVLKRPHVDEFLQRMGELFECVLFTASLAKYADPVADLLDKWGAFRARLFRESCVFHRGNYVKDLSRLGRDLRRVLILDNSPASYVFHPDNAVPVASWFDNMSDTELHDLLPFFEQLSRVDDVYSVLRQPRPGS

[31] = miR-122 activators in hepatoma reporter cells, dose response, cell-based, Huh7 psiCHECK-miR122, Renilla luciferase, cherry-picked (AID 651956); assay type: functional;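 further: huh7 hepatoma cells stably carrying a psiCHECK-2 miR-122 sensor plasmid; renilla luciferase signal reporting endogenous miR-122 activity after 48 h compound exposure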
[32] = HepG2 cell cytotoxicity, dose response, cytotoxicity control, cherry-picked samples (AID 1159577); assay type: functional, cell-based
[33] = P. falciparum Dd2 growth inhibitors, dose response, SYBR Green, cherry-picked samples (AID 1159567); assay type: functional, cell-based

T1 sequence (P08684 whole entry): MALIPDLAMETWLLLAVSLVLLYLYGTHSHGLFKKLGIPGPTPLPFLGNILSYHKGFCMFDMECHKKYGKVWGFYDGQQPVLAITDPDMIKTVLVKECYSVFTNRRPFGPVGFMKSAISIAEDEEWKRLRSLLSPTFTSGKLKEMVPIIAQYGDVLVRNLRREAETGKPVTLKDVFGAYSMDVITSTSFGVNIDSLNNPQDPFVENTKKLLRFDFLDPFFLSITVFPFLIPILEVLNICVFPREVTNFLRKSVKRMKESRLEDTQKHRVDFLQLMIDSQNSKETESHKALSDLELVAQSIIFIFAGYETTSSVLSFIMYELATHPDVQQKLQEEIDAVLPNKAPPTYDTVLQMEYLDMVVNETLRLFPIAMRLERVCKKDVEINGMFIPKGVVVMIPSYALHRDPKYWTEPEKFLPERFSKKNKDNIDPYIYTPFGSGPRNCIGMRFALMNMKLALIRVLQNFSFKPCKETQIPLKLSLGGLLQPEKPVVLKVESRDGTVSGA
Ras and Rab interactor 1/Tyrosine-protein kinase ABL1, sequence (P00519 whole entry, the tested form may be a part): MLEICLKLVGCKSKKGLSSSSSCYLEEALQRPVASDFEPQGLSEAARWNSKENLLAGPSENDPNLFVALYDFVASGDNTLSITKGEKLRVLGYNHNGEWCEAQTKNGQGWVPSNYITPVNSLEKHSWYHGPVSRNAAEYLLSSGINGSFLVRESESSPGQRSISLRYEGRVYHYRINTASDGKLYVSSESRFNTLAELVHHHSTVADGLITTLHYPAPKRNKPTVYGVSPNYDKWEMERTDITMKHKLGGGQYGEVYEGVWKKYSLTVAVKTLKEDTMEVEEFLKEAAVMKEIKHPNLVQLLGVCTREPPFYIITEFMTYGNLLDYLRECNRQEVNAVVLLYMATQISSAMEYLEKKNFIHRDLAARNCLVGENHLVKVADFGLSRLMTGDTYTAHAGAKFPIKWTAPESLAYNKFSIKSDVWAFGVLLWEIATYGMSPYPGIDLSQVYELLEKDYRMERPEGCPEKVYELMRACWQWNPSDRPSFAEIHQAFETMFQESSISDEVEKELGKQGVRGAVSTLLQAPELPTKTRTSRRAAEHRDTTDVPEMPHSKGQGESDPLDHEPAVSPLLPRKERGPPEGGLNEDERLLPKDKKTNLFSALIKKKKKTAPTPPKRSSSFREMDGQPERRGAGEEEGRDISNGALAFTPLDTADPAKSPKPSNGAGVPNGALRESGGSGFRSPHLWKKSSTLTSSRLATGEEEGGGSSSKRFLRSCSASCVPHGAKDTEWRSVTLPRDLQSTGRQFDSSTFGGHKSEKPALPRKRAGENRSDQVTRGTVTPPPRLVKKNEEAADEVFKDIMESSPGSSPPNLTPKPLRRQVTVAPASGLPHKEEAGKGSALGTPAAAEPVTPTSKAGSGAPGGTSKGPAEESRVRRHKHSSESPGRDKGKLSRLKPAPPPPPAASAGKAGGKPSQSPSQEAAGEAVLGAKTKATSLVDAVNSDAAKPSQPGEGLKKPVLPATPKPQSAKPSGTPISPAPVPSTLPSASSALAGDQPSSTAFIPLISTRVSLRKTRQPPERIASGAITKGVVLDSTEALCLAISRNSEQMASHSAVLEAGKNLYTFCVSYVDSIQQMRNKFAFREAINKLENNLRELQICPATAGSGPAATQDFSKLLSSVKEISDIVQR
Ras and Rab interactor 1/Tyrosine-protein kinase ABL1, sequence (Q13671 whole entry, the tested form may be a part): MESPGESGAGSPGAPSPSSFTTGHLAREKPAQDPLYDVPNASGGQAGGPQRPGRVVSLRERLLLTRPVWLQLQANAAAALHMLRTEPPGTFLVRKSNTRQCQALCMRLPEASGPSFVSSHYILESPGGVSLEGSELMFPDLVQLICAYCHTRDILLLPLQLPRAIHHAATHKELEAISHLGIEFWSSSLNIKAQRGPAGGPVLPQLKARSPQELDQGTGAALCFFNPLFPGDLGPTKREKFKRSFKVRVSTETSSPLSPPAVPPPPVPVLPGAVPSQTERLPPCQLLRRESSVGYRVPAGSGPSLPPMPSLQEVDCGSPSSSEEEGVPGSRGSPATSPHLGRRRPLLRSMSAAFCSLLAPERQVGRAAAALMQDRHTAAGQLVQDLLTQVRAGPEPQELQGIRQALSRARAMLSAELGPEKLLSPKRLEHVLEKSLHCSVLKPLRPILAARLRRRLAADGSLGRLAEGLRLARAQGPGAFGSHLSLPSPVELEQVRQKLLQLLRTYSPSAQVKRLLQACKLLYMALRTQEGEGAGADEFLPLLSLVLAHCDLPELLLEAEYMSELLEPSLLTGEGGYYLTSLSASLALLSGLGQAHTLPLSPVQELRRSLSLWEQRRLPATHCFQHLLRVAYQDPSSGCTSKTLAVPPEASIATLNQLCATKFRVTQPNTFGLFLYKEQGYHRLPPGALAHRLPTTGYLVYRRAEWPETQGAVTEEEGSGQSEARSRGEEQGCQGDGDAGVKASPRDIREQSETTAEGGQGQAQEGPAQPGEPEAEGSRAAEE
Induced myeloid leukemia cell differentiation protein Mcl-1, sequence (Q07820 whole entry): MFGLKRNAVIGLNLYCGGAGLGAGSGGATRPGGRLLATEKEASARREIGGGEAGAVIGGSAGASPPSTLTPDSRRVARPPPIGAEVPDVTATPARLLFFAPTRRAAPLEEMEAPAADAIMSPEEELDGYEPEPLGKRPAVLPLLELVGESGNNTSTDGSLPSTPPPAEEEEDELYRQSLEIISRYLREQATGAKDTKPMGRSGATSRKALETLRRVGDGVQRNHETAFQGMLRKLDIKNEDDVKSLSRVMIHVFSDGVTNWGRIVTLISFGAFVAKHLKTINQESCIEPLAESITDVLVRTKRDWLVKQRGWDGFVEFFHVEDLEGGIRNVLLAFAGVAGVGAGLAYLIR
T2 sequence (P11712 whole entry): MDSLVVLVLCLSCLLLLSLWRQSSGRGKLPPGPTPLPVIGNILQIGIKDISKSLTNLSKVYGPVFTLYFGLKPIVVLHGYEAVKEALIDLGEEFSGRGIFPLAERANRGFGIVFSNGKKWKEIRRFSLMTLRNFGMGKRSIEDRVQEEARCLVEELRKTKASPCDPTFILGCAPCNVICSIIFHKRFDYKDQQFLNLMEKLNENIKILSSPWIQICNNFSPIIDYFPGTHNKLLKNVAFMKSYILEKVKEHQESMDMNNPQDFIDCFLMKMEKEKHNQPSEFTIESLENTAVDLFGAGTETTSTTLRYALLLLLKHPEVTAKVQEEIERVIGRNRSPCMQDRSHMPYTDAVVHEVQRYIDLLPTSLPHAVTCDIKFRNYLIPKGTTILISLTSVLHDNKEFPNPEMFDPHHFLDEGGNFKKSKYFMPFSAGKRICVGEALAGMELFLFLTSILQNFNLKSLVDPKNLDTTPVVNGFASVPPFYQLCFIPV
Nonstructural protein 1, sequence (Q194T2 whole entry): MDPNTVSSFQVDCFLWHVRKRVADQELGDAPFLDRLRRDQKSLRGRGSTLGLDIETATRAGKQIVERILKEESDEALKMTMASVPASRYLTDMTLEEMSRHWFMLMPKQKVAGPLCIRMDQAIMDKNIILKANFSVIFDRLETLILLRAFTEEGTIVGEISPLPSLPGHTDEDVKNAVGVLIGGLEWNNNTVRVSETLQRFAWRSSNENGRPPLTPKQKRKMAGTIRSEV
Cytochrome P450 2C19, sequence (P33261 whole entry): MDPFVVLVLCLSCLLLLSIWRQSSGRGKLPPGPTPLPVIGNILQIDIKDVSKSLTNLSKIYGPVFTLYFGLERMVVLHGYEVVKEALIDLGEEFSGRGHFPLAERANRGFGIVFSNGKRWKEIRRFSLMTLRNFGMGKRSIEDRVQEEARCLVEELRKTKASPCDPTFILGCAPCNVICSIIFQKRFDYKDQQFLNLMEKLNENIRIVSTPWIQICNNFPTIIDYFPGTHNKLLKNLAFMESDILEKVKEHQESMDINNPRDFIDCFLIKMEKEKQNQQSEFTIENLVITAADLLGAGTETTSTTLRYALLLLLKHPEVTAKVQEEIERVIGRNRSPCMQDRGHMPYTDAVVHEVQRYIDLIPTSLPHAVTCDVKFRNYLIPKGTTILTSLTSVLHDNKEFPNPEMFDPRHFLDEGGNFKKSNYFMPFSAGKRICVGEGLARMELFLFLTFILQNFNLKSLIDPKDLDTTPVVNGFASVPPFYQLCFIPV
Paired box protein Pax-8, sequence (Q06710 whole entry): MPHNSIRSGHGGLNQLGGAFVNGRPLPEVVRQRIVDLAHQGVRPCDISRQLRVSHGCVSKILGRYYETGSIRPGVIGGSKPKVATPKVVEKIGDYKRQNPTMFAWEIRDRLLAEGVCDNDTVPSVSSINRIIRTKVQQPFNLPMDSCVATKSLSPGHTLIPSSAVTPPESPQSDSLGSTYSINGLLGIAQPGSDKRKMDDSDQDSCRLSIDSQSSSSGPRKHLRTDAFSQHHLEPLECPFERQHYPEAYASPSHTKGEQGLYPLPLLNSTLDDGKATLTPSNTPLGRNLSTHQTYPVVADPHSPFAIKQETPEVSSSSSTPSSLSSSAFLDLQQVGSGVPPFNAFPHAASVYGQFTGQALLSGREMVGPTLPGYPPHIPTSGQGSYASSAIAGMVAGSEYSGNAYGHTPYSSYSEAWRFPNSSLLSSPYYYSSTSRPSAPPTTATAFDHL

## Cc1sc(NC(=O)c2sc3nc4c(C)cccc4cc3c2N)c(C#N)c1C
[1]
  IC50: 1.44 µM (active)

## COCc1cc(CN2CCCC2)c(O)c2ncccc12
[2]
  EC50: 8.4 µM (active)
Nonstructural protein 1
  IC50: 2.31 µM (active)
[3]
  EC50: 4.17 µM (active)
[4]
  EC50: 3.07 µM (active)
[5]
  EC50: 11.4 µM (active)
[6]
  EC50: 6.21 µM (active)

## COC(=O)C1=C(C)N(Cc2ccco2)C(=O)N[C@H]1c1ccc(Br)cc1
Cells [7]
  IC50: 3.12 µM (active)
[8]
  EC50: > 50 µM (active)
[9]
  CC50: 42.9 µM (active)

## CSC1=C(C#N)C(c2ccccc2Cl)C2=C(O)c3ccccc3C2=N1 (stereo not drawn)
Cytochrome P450 3A4 [10]
  AC50: inconclusive

## O=C(Nc1ccc(Cl)c(Cl)c1)Nc1ccc([N+](=O)[O-])cn1
Troponin, cardiac muscle
  EC50: > 71.5 µM (inactive)

## FC(F)(F)c1nnc2c(Sc3ccccc3)nc3ccc(Cl)cc3n12
BJ [11]
  EC50: 23.4 µM (active)
Cytochrome P450 2C9 [12]
  AC50: 8.91 µM (inconclusive)
BJ [13]
  EC50: 1.8 µM (inconclusive)
[14]
  EC50: 4.19 µM (active)
BJ [15]
  EC50: 3.65 µM (active)
Cytochrome P450 3A4 [10]
  AC50: inconclusive
INS1
  AC50: 7.41 µM (active)
Paired box protein Pax-8
  AC50: 1.52 µM (active)
BJ [16]
  EC50: 0.599 µM (active)

## COc1cc(CNC(C)(C)CO)cc(Br)c1OCc1ccc(Cl)cc1Cl
[17]
  CC50: 19.4 µM (active)
[18]
  CC50: 13.8 µM (active)
[19]
  EC50: 7.94 µM (active)
[20]
  AC50: 5.33 µM (active)
[21]
  CC50: 12.5 µM (active)
[22]
  EC50: 7.38 µM (active)
[23]
  AC50: 18.5 µM (active)
Cells [24]
  IC50: 16.7 µM (active)

## N#CC(Cl)Cl
Cytochrome P450 3A4 [25]
  AC50: 31.6 µM (inconclusive)

## CCC(=O)N1CCN(c2ccc(NC(=O)c3cccs3)cc2)CC1
Cytochrome P450 2C9 [26]
  AC50: inconclusive
Cytochrome P450 3A4 [10]
  AC50: inconclusive
Cytochrome P450 2C19
  AC50: 0.501 µM (inconclusive)

## COC(=O)CNC(=O)C1(C)C=CC2(CCCCC2)N1C(=O)OC (stereo not drawn)
Cytochrome P450 3A4 [25]
  AC50: 31.6 µM (inconclusive)

## CN1C[C@@H](CO)C=C2c3cccc4[nH]cc(c34)CC21 (stereo partly drawn)
Cytochrome P450 3A4 [25]
  AC50: 31.6 µM (inconclusive)

## O=[N+]([O-])c1cccc(NNS(=O)(=O)c2ccccc2F)c1
[8]
  EC50: > 50 µM (active)

## COc1cc(CNCCCN2CCOCC2)c(Br)cc1OCC(=O)Nc1ccccc1C
[8]
  EC50: > 50 µM (active)

## CC1CCN(C2=C(NS(=O)(=O)c3ccccc3)C(=O)c3ccccc3C2=O)CC1
Nonstructural protein 1
  IC50: 11.3 µM (active)

## O=C(OC1CCN(c2ncc(C(F)(F)F)cc2Cl)CC1)c1ccccc1
Cytochrome P450 3A4 [10]
  AC50: inconclusive

## Cc1ccc(/C=C2\Oc3c(ccc(O)c3CN3CCN(CCO)CC3)C2=O)cc1
Troponin, cardiac muscle
  EC50: 19.5 µM (inactive)
[27]
  EC50: 73.9 µM (active)
[28]
  EC50: 36 µM (active)

## CCOC(=O)N1CCC(=NNc2ccnc3cc(Cl)ccc23)CC1
[8]
  EC50: > 50 µM (active)

## CCCCCCC1=Cc2cc(OC)c(OC)cc2C(CC(=O)/C=C/OC)O1 (stereo not drawn)
Cytochrome P450 3A4 [25]
  AC50: 5.01 µM (inconclusive)

## COC(=O)c1ccc(CSc2nnc(-c3ccncc3)o2)o1
[29]
  IC50: 11 µM (inactive)
Cells [24]
  IC50: 39.6 µM (active)

## CCCCN1C(=O)N(C)C2NC(=O)NC21 (stereo not drawn)
[29]
  IC50: 3 µM (active)

## Cc1ccc(NC(=O)COc2ccc(/C=N/NC(=O)CSCc3ccccc3)cc2)cc1
Troponin, cardiac muscle
  EC50: > 71.5 µM (inactive)
[30]
  IC50: 9.82 µM (active)

## Oc1ccc(N=Nc2cccc(Cl)c2)cc1/C=N/c1ccc(N2CCOCC2)cc1
[1]
  IC50: 5.14 µM (not active)

## C[C@H](CO)N1C[C@H](C)[C@H](CN(C)C(=O)Nc2ccc3c(c2)OCO3)Oc2ncc(-c3cccc(C(F)(F)F)c3)cc2C1=O
[31]
  AC50: 14.1 µM (active)

## Clc1cccc(/C=N\Nc2nccs2)c1
[8]
  EC50: > 50 µM (active)
Cells [24]
  IC50: 12.7 µM (active)

## C[C@@H]1CN([C@@H](C)CO)C(=O)Cc2cc(NC(=O)Nc3ccccc3)ccc2O[C@H]1CN(C)Cc1ccc(-c2ccccc2)cc1
[32]
  AC50: 18.5 µM (active)
[33]
  AC50: 1.87 µM (active)

## C[C@H]1CN([C@@H](C)CO)S(=O)(=O)c2ccc(C#Cc3ccc(F)cc3)cc2O[C@@H]1CN(C)C(=O)NC1CCCC1
[32]
  AC50: 25.6 µM (active)
[33]
  AC50: 6.21 µM (active)

## COc1ccc(-c2oc3ccccc3c(=O)c2O)cc1
Cytochrome P450 3A4 [25]
  AC50: 3.98 µM (inconclusive)
